Where no end group is shown, it is not given here. [ ]: non-standard residue; d: D form. The star is where a group is joined. Biotin = O=C1N[C@H]2[C@H](CS[C@H]2CCCCC(=O)*)N1; F11 = C18-Glu-EG2-EG2-NHS; Aib = CC(C)(N)C(=O)O

Tested on in one assay: not listed separately
Kind of assay: Weight reduction and feed intake reduction over 24 hours after oral administration. The format is in vivo. The settings on record: mice, formulation with sodium chenodeoxycholate and propyl gallate (Table 13). As to the method: Physiologically active substances bound to a biotin moiety, fatty acid moiety or a combination thereof, prepared in accordance with the above example, were formulated by dissolving in a vehicle (0.02% polysorbate 80 in 10 mM PBS (pH 7.4)) with the compositions of excipients shown in Table 13, then administered orally to mice. Weight reduction and feed intake reduction were measured over 24 hours.
Take “Conjugate 33: Polypeptide SEQ ID NO 24 (amylin derivative) with biotin moiety B38 at K1 (K(Biotin)CNTATCATQRLANFLVHSSNNFGPILPPTNVGSNTY; ends and bridges not checked)”: the “Weight loss compared to untreated group (%)” value (from here on “Weight loss … (%)”) was −4.07 ± 1.30%.
Still for that read-out and setting: under “Conjugate 36: Polypeptide SEQ ID NO 26 (amylin derivative) with biotin moiety B38 at K1 (K(Biotin)CNTATCATQRLADFLRHSSPNFGAIPSSTNVGSRTY; ends and bridges not checked)” stands −4.53 ± 0.86%.
Turning to “Conjugate 39: Polypeptide SEQ ID NO 28 (amylin derivative) with biotin moiety B38 at K1 (K(Biotin)CNTATCATQRLADFLRHSSNNFGAIPSSTNVGSRTY; ends and bridges not checked)”, the “Weight loss … (%)” value was −1.99 ± 0.94%.
The same measure, in the same setting: for “Conjugate 61: Polypeptide SEQ ID NO 24 with biotin moiety B38 at K1 and fatty acid moiety F11 at K1 (KCNTATCATQRLANFLVHSSNNFGPILPPTNVGSNTY; not fully specified (residue 1); ends and bridges not checked; also: biotin B38 and fatty acid F11 both at K1, attachment sites not given here)” the value was −2.96 ± 4.22%; for “Conjugate 62: Polypeptide SEQ ID NO 26 with biotin moiety B38 at K1 and fatty acid moiety F11 at K1 (KCNTATCATQRLADFLRHSSPNFGAIPSSTNVGSRTY; not fully specified (residue 1); ends and bridges not checked; also: biotin B38 and fatty acid F11 both at K1, attachment sites not given here)”, −3.32 ± 1.31%; for “Conjugate 63: Polypeptide SEQ ID NO 28 with biotin moiety B38 at K1 and fatty acid moiety F11 at K1 (KCNTATCATQRLADFLRHSSNNFGAIPSSTNVGSRTY; not fully specified (residue 1); ends and bridges not checked; also: biotin B38 and fatty acid F11 both at K1, attachment sites not given here)”, −2.41 ± 0.78%.
As for “Conjugate 64: Polypeptide SEQ ID NO 30 with biotin moiety B38 at K35 and fatty acid moiety F11 at K1 (RCNTATCATQRLADFLRHSSNNFGAIPSSTNVGSK(Biotin)TY; ends and bridges not checked; also: fatty acid F11 at K1, but residue 1 is R)”, the “Weight loss … (%)” value is reported as −3.38 ± 1.26%.
Still for that read-out and setting: under “Polypeptide SEQ ID NO: 24: amylin derivative KCNTATCATQRLANFLVHSSNNFGPILPPTNVGSNTY (Amylin derivative) [reference compound]” stands −2.63 ± 1.06%; under “Polypeptide SEQ ID NO: 26: amylin derivative KCNTATCATQRLADFLRHSSPNFGAIPSSTNVGSRTY (Amylin derivative) [reference compound]”, −3.13 ± 1.05%.
The same measure, in the same setting: under “Polypeptide SEQ ID NO: 28: amylin derivative KCNTATCATQRLADFLRHSSNNFGAIPSSTNVGSRTY (Amylin derivative) [reference compound]” stands −1.11 ± 0.84%.
Same read-out and setting: under “Polypeptide SEQ ID NO: 30: amylin derivative RCNTATCATQRLADFLRHSSNNFGAIPSSTNVGSKTY (Amylin derivative) [reference compound]” stands −1.17 ± 0.76%.

In another assay the test system is glycated hemoglobin. The experiment in a line: Glycated hemoglobin change after oral administration once daily over 3 weeks (Conjugate 56). The format is in vivo. The settings on record: mice, oral once daily 3 weeks, formulation with one bile acid and propyl gallate. As to the method: Physiologically active substances bound to a biotin moiety prepared in accordance with the above example were formulated by dissolving in a vehicle with the compositions of excipients shown in Table 23. These were orally administered to mice once daily over 3 weeks, and changes in glycated hemoglobin were measured.
For the substance “Conjugate 56: Polypeptide SEQ ID NO 40 (glucagon derivative) with biotin moiety B38 at K12 and fatty acid moiety F11 at K30 (H[Aib]QGTFTSDYSK(Biotin)YLDEQAAKEFVQWLMNTK(F11))”, the “glycated hemoglobin reduction effect” value is “exhibited a glycated hemoglobin reduction effect”.

Staying with this assay, now noted: mice, oral once daily over 3 weeks, 1.343 mg/kg; sCDC 68 mg/kg, PG 34 mg/kg.
Turning to “Conjugate 56: Polypeptide SEQ ID NO 40 (glucagon derivative) with biotin moiety B38 at K12 and fatty acid moiety F11 at K30 (H[Aib]QGTFTSDYSK(Biotin)YLDEQAAKEFVQWLMNTK(F11))”, the “ΔGlycated Hemoglobin” value is listed as −0.47 ± 0.34%.

Staying with this assay, now noted: mice, oral once daily over 3 weeks, 4.475 mg/kg; sCDC 68 mg/kg, PG 34 mg/kg.
Regarding “Conjugate 56: Polypeptide SEQ ID NO 40 (glucagon derivative) with biotin moiety B38 at K12 and fatty acid moiety F11 at K30 (H[Aib]QGTFTSDYSK(Biotin)YLDEQAAKEFVQWLMNTK(F11))”, the “ΔGlycated Hemoglobin” value is recorded as −0.98 ± 0.67%.

The values are drawn from patent publication US20240000803A1, “ORAL FORMULATION OF BIOLOGICALLY ACTIVE MATERIAL CONJUGATE HAVING BIOTIN MOIETY, FATTY ACID MOIETY, OR COMBINATION THEREOF COUPLED THERETO” (D&D Pharmatech Inc., priority 2020, published 2024).
